According to article PMC5078989, “Targeted inhibition of the COP9 signalosome for treatment of cancer” (Nature Communications, 2016):

What was measured:
human MMP1 = molecular target: T1, human MMP1 (Homo sapiens, UniProt P03956); experiment: Selectivity assay MMP1; type: biochemical
T1 construct: Human MMP1 (Uniprot P03956), amino acids 1–469; made in house; host or cells: stably transfected C127 cells
T1 sequence (P03956 20-469): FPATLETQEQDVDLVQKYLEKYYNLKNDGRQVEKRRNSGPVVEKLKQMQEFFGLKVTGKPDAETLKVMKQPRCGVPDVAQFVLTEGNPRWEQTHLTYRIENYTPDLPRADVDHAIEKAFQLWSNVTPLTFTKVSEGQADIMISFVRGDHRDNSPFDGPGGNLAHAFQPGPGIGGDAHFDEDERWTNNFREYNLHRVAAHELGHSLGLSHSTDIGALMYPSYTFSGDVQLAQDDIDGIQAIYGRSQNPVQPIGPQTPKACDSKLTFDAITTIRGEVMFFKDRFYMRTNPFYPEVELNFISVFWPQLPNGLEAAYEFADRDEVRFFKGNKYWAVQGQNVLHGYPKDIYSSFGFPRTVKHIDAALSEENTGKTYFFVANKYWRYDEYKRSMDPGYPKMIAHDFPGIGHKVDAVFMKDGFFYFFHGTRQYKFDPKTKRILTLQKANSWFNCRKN
Experimental: All biochemical assays were performed at room temperature in 384-well plates in a total volume of 25.25 μl per well. Test compounds were dissolved in 90% (v/v) DMSO/water. For the assays, 250 nl of compound solution was added per well, followed by addition of 12.5 μl protease solution. After 70 min of pre-incubation at room temperature, the reactions were started by addition of 12.5 μl substrate solution and followed either by measuring fluorescence intensity (rhodamine 110-based substrates) or by fluorescence lifetime (PT14-based substrates). The effect of compound on enzymatic activity was obtained from the linear part of the progress curves and determined after 1 h (t=60 min). The final compound concentrations ranged from 100 μM to 1 nM.
Matrix metalloproteinases. […]

SU-DHL-1 cells = experiment: Immunoblotting for PARP and caspase 3 in SU-DHL-1 cells; type: cell-based, human; conditions: SU-DHL-1, 1 μM, 24 h or 48 h
Experimental: Cells were maintained in a humidified incubator at 37 °C and 5% CO2. […] All cells were negatively tested for mycoplasma contamination either by the vendor or in house. […] If not stated otherwise, cells were harvested after incubation for 16 h and subjected to SDS-PAGE and western blotting. The RNA interference experiment was performed with CSN5 stealth siRNA (#HSS116986) and stealth negative control siRNA (#12935-400) (Invitrogen), which were transfected at 10 nM into HCT116 cells using […] (Qiagen) according to the manufacturer's protocols. Seventy-two hours after transfection, cells were harvested and subjected to SDS-PAGE and western blotting (see Supplementary Fig. 7 for all western blottings performed). […] Cells from longer compound incubations were also lysed in RIPA buffer, which allows the protein concentration to be determined by BCA Protein Assay Kit (Pierce). Proteins were separated by SDS-PAGE using 4-20% Tris-Glycine Gels (Invitrogen) and subsequently transferred to polyvinylidene difluoride membranes using a Trans-Blot Turbo System (BioRad). […] Horseradish peroxidase-conjugated secondary antibodies (1:3,000) were purchased from Promega AG and bound antibody was detected by enhanced chemiluminescence (Pierce). page 5: Supplementary Figure 5 a b 0 Cul1-Nedd8 Cul1-Nedd8 Cul1 -20 Cul1 Fbxo7 -40 Fbxo7 -60 Actin -80 Actin CDK6 -100 CDK6 […] […]

For `CC(C)n1nc(C(F)F)cc1C(=O)Nc1ccc([C@H]2[C@@H](O)CCCc3cncn32)c(-c2ccccc2)c1` [CSN5i-3, 3-(Difluoromethyl)-N-(6-((5S,6S)-6-hydroxy-6,7,8,9-tetrahydro-5H-imidazo[1,5-a]azepin-5-yl)-[1,1′-biphenyl]-3-yl)-1-isopropyl-1H-pyrazole-5-carboxamide], the IC50 (human MMP1) was > 100 µM and the “apoptosis markers (cleaved PARP, cleaved caspase 3)” value (SU-DHL-1 cells) was “triggered the formation of cleaved PARP and cleaved caspase 3”.
